One data set relates to SSTR2. Set-up: method as in Buscail et al. [1994]. Conditions: ref Buscail et al. [1994]; cited from earlier work. The source says: Significant progress has been made in recent years towards understanding the underlying biology and molecular pathways involved with NETs, particularly the role of somatostatin receptors (SSTRs) and their downstream pathways. SSTRs (SSTR1, 2 A/2B, 3, 4, and 5) belong to a family of G protein-coupled receptors with seven transmembrane-spanning proteins that bind the cyclic peptide somatostatin (SST) (Theodoropoulou and Stalla [2013]). SST regulates cell growth and inhibits hormone secretion in the endocrine and exocrine systems (Brereton et al. [2015]; Ampofo et al. [2020]). Prior research has ...

For the next data set, the system named is SSTR2, AR42J. Conditions: ref Vaidyanathan et al. [2003], Hofland et al. [1999]; cited from earlier work.
For data set [1] the following is noted: ref Brereton et al. [2015]; Lamberts et al. [1996]; cited from earlier work. An excerpt: Significant progress has been made in recent years towards understanding the underlying biology and molecular pathways involved with NETs, particularly the role of somatostatin receptors (SSTRs) and their downstream pathways. SSTRs (SSTR1, 2 A/2B, 3, 4, and 5) belong to a family of G protein-coupled receptors with seven transmembrane-spanning proteins that bind the cyclic peptide somatostatin (SST) (Theodoropoulou and Stalla [2013]). SST regulates cell growth and inhibits hormone secretion in the endocrine and exocrine systems (Brereton et al. [2015]; Ampofo et al. [2020]).

Data set [2] concerns PC-3 cells (SSTR2 moderate expression). The experiment in a line: Receptor binding and competitive receptor blocking assay, PC-3 cells. In kind it is cell-based. Conditions: 2.5 nmol unlabeled DFO-TOC (100x excess) as blocking agent; at 120 h; p = 0.0001; paired nonparametric t-test. As for the experimental part: (§1) Cells were seeded in Fisherbrand™ 12-well surface-treated culture plates with 1 million cells per well for each cell line and were allowed to adhere overnight under normal cell culture conditions. Samples were not purified to remove excess DFO-TOC. For receptor binding and blocking experiments, each well was incubated with [^89Zr]Zr-DFO-TOC (0.025 nmol DFO-TOC per well, 1 µCi (0.037 MBq) of [^89Zr]) in 1mL of cell media. For receptor blocking experiments,
(§2) 2.5 nmol unlabeled DFO-TOC was added to each well, in addition to [^89Zr]Zr-DFO-TOC. Culture plates were incubated with the tracer for 1 h, 3 h, 1 day, 3 days, 5 days, and 6 days. At each timepoint, the media was removed and the cells were washed with PBS twice. Cells were detached using 1 mL of 1 M NaOH and collected in a microcentrifuge tube for analysis using a Revvity (Waltham, MA) Wizard2 Gamma Counter. BCA assays were used to estimate protein concentrations per the manufacturer’s instructions.
(§3) All data was analyzed using GraphPad Prism (San Diego, CA) and is presented as a mean ± standard deviation. Statistical analysis was completed using a paired nonparametric t-test (α = 0.05) to compare cell total binding and cell blocking groups.

For data set [3] the following is noted: 100 µL of tracer sample (200 µCi, 7.4 MBq) in 400 µL prefiltered mouse serum, 37 °C, 800 rpm, mean ± standard deviation.
Description: To neutralize [^89Zr]Zr-oxalate, an equal volume of [^89Zr]Zr-oxalate and 0.5 M Thermo Scientific HEPES (concentration 99%) buffer were mixed. The pH of the sample was then adjusted using 5.0 M NaOH. For all radiolabeling experiments, 100 µCi (3.7 MBq) of ^89Zr (pH ~ 7.4) was incubated with varying molar quantities of DFO-TOC and 1.0 M HEPES buffer in a final incubation volume of 200 µL. The reaction was incubated on a thermomixer at 37 °C and 800 rpm for 30 min. The molar activity was determined by radiolabeling 1 nmol of DFO-TOC with varying activities of ^89Zr up to 1500 µCi (55.5 MBq) and 1.0 M HEPES buffer in a final incubation volume of 200 µL. […] Samples were analyzed using an Agilent (Santa Clara, CA) 1260 Infinity II high-performance liquid chromatography (HPLC) instrument with a LabLogic (Chantilly, VA) Flow-RAM radio-HPLC detector. Radiochemical yields were determined via radio-HPLC using a reversed-phase C18 selectivity column (5 μm particle size, 150 mm length, and 4.6 mm diameter).
The samples were assessed for benchtop stability and stability in mouse serum only if a radiochemical yield of 95% or greater was achieved. Benchtop stability was assessed at time points of 30 min, 1 h, 1 day, 2 days, 3 days, 6 days, and 9 days using an Eckert & Ziegler (Valencia, CA) AR-2000 instant Thin Layer Chromatography (iTLC) and radio-HPLC. […]
For data set [4], the system named is PANC-1 cells (SSTR2 minimal expression). The experiment in a line: Receptor binding and competitive receptor blocking assay, PANC-1 cells. It counts as cell-based. As for the experimental part: as §1, §2, §3
The next data set deals with PANC-1 cells. Briefly: Internalization assay, PANC-1 cells. In kind it is cell-based. Conditions: 0.025 nmol DFO-TOC, 1 µCi per well; time points 30 min, 1 h, 3 h; trypsin and sodium citrate pH 2 strip. How it is done:
(§4) Cells were seeded in Fisherbrand™ 12-well surface-treated culture plates with 1 million cells per well for each cell line and were allowed to grow overnight under cell culture conditions. For internalization experiments, each well received 0.025 nmol DFO-TOC radiolabeled with 1 µCi (0.037 MBq) of [^89Zr]Zr-DFO-TOC in 1 mL of cell media. Plates were incubated with [^89Zr]Zr-DFO-TOC for 30 min, 1 h, and 3 h. Cells were detached from the wells using 800 µL of 0.05% Gibco trypsin incubated for 5 min. Cells were sedimented using a benchtop centrifuge at 7000 g for 5 min. The supernatant was removed, and the cells were resuspended in 200 µL of 0.1 M Supelco sodium citrate (pH 2) for 5 min. The cells were sedimented using a benchtop microcentrifuge and the supernatant was added to the trypsin. The supernatant and cell pellet activities were determined using the Wizard2 Gamma Counter.

Data set [5] can be described thus: Benchtop stability of the radiotracer (radio-HPLC and iTLC). Conditions: mean ± standard deviation. In kind it is physicochemical.
Description: To neutralize [^89Zr]Zr-oxalate, an equal volume of [^89Zr]Zr-oxalate and 0.5 M Thermo Scientific HEPES (concentration 99%) buffer were mixed. The pH of the sample was then adjusted using 5.0 M NaOH. For all radiolabeling experiments, 100 µCi (3.7 MBq) of ^89Zr (pH ~ 7.4) was incubated with varying molar quantities of DFO-TOC and 1.0 M HEPES buffer in a final incubation volume of 200 µL. The reaction was incubated on a thermomixer at 37 °C and 800 rpm for 30 min. The molar activity was determined by radiolabeling 1 nmol of DFO-TOC with varying activities of ^89Zr up to 1500 µCi (55.5 MBq) and 1.0 M HEPES buffer in a final incubation volume of 200 µL. Samples were incubated using the same conditions as the radiochemical yield assays. Samples were analyzed using an Agilent (Santa Clara, CA) 1260 Infinity II high-performance liquid chromatography (HPLC) instrument with a LabLogic (Chantilly, VA) Flow-RAM radio-HPLC detector. Radiochemical yields were determined via radio-HPLC using a reversed-phase C18 selectivity column (5 μm particle size, 150 mm length, and 4.6 mm diameter).
The samples were assessed for benchtop stability and stability in mouse serum only if a radiochemical yield of 95% or greater was achieved. Benchtop stability was assessed at time points of 30 min, 1 h, 1 day, 2 days, 3 days, 6 days, and 9 days using an Eckert & Ziegler (Valencia, CA) AR-2000 instant Thin Layer Chromatography (iTLC) and radio-HPLC. Diethylenetriamine pentaacetic acid was used as the mobile phase for iTLC, while radio-HPLC used the gradient described previously. Stability in mouse serum was assessed by adding 100 µL of a 200 [drawing 3] […] No further sample purification was conducted before injection on the radio-HPLC. All samples remained on a thermomixer at 37 °C and 800 rpm, and aliquots were removed for analysis by using iTLC and radio-HPLC, after 1 h, 1 day, 2 days, 3 days, 5 days, 6 days, and 9 days.
The subject of a further data set is AR42J cells. The experiment in a line: Internalization assay, AR42J cells. The settings on record: 0.025 nmol DFO-TOC, 1 µCi per well; time points 30 min, 1 h, 3 h; trypsin and sodium citrate pH 2 strip. It counts as cell-based. How it is done:
as §4

The subject of the next data set is PC-3 cells. Briefly: Internalization assay, PC-3 cells. In kind it is cell-based. As for the experimental part:
as §4

For data set [6], the system named is AR42J cells (SSTR2 high expression). Briefly: Receptor binding and competitive receptor blocking assay, AR42J cells. In kind it is cell-based. How it is done: as §1, §2, §3

“And” between values parts separate entries of the source, which are not always exact repeats. Equal values may be shown once. “Also recorded” adds a separate entry of the source.

The source of these data is PMC11655904, “[^89Zr]Zr-DFO-TOC: a novel radiopharmaceutical for PET imaging of somatostatin receptor positive neuroendocrine tumors” (EJNMMI Radiopharmacy and Chemistry, 2024).

As for octreotide, the “receptor affinity for SSTR2” value with SSTR2 was “high receptor affinity”.

Turning to [Tyr3, Thr8]-octreotide, the “earliest time at which SSTR2 internalization was observed” value in the data set on SSTR2, AR42J is given as 2.5 min.

Consider somatostatin [SST], for which the bioactive half-life in [1] was < 1 min.

As for `CC(=O)N(O)CCCCCNC(=O)CCC(=O)N(O)CCCCCNC(=O)CCC(=O)N(O)CCCCCNC(=S)Nc1ccc(NC(=S)NCCCCCC(=O)N[C@H](Cc2ccccc2)C(=O)N[C@H]2CSSC[C@@H](C(=O)N[C@H](CO)[C@@H](C)O)NC(=O)[C@H]([C@@H](C)O)NC(=O)[C@H](CCCCN)NC(=O)[C@@H](Cc3c[nH]c4ccccc34)NC(=O)[C@H](Cc3ccc(O)cc3)NC2=O)cc1` [[^89Zr]Zr-DFO-TOC, metal not drawn], the “blocking versus total binding groups, PC-3” value in data set [2] is “statistically significant difference”. In addition, the “radiochemical yield in mouse serum after 9 days, radio-HPLC” value in [3] is 89 ± 2%. The “tracer uptake in PANC-1 cells” value in data set [4] (0.025 nmol DFO-TOC, 1 µCi per well, attributed to low SSTR2 expression) is reported as “Low”. Moreover, the “blocking versus total binding groups, PANC-1” value in data set [4] (2.5 nmol unlabeled DFO-TOC (100x excess) as blocking agent, all time points, paired nonparametric t-test) is listed as “No statistically significant difference”. Moreover, the “time of maximum cell internalization, PANC-1” value with PANC-1 cells was determined as 3 h. The “radiochemical yield on the benchtop after 9 days, iTLC” value in data set [5] (iTLC, diethylenetriamine pentaacetic acid mobile phase) is given as 97 ± 4%. For the same compound, in [5] (radio-HPLC, C18, 0.1% TFA water/acetonitrile gradient), the “radiochemical yield on the benchtop after 9 days, radio-HPLC” value is 89.6% and 90 ± 4%. Besides, in the data set on AR42J cells, the “time of maximum cell internalization, AR42J” value amounted to 3 h. Moreover, in the data set on PC-3 cells (0.025 nmol DFO-TOC, 1 µCi per well, time points 30 min, 1 h, 3 h, trypsin and sodium citrate pH 2 strip), the “time of maximum cell internalization, PC-3” value is 3 h. Further, the “percentage of tracer internalized in PC-3 compared with AR42J and PANC-1” value with PC-3 cells (time points up to 3 h) is reported as “higher percentage of the tracer was internalized”. The “tracer uptake (total binding) in AR42J cells compared with the other cell lines” value in data set [6] (0.025 nmol DFO-TOC, 1 µCi per well, 1 million cells per well, 1 h to 6 days, gamma counter, P < 0.0001 vs PC-3 and p = 0.0001 vs PANC-1 after 1 h) is “highest uptake; also recorded: higher uptake than PC-3 and PANC-1 cell lines at all time points”. In addition, in data set [6] (0.025 nmol DFO-TOC, 1 µCi per well, time points 1 h to 6 days), the “time at which AR42J cell binding reached saturation” value worked out at 5 days. For the same compound, the “blocking versus total binding groups, AR42J” value in data set [6] (2.5 nmol unlabeled DFO-TOC (100x excess) as blocking agent, after 1 h, p < 0.0001, paired nonparametric t-test) is reported as “statistically significant difference”.
